Laboratory results published in patent publication EP0979831B1, “Antibacterial peptides and antibacterial agents containing such peptides as an effective ingredient” (National Institute of Agrobiological Sciences, priority 1998, dated 2003).
≈ marks a conversion by molar mass, not a printed value. Residues, ends and D or L forms follow the SMILES beside them.

Test system: Escherichia coli
Format: cell-based
Protocol: Minimum Inhibitory Concentration (MIC) of these antibacterial peptides (1) to (5) against Staphylococcus aureus, methicillin resistant Staphylococcus aureus (MRSA), Escherichia coli and Pseudomonas aeruginosa was determined.

SMILES | MIC E coli [µg/mL]
CC[C@H](C)[C@H](NC(=O)[C@H](C)NC(=O)[C@H](CC(C)C)NC(=O)[C@H](CC(C)C)NC(=O)[C@H](CC(C)C)NC(=O)[C@H](C)N)C(=O)N[C@@H](CCCNC(=N)N)C(=O)N[C@@H](CCCCN)C(=O)N[C@@H](CCCNC(=N)N)C(N)=O [present peptide (2), Ala Leu Leu Leu Ala Ile Arg Lys Arg] (H-ALLLAIRKR-NH2) | 6 (≈ 5.7 µM)
CC[C@H](C)[C@H](NC(=O)[C@H](C)NC(=O)[C@H](CC(C)C)NC(=O)[C@H](Cc1ccc(O)cc1)NC(=O)[C@H](CC(C)C)NC(=O)[C@H](C)N)C(=O)N[C@@H](CCCNC(=N)N)C(=O)N[C@@H](CCCCN)C(=O)N[C@@H](CCCNC(=N)N)C(N)=O [present peptide (4), Ala Leu Trp Leu Ala Ile Arg Lys Arg] | 4 (≈ 3.63 µM)
CC[C@H](C)[C@H](NC(=O)[C@H](C)NC(=O)[C@H](CC(C)C)NC(=O)[C@H](CC(C)C)NC(=O)[C@H](Cc1c[nH]c2ccccc12)NC(=O)[C@H](C)N)C(=O)N[C@@H](CCCNC(=N)N)C(=O)N[C@@H](CCCCN)C(=O)N[C@@H](CCCNC(=N)N)C(N)=O [present peptide (3), Ala Trp Leu Leu Ala Ile Arg Lys Arg] (H-AWLLAIRKR-NH2) | 5 (≈ 4.44 µM)
CC[C@H](C)[C@H](NC(=O)[C@H](C)NC(=O)[C@H](CC(C)C)NC(=O)[C@H](Cc1c[nH]c2ccccc12)NC(=O)[C@H](CC(C)C)NC(=O)[C@H](C)N)C(=O)N[C@@H](CCCNC(=N)N)C(=O)N[C@@H](CCCCN)C(=O)N[C@@H](CCCNC(=N)N)C(N)=O [present peptide (5), Ala Leu Trp Leu Ala Ile Arg Lys Arg] (H-ALWLAIRKR-NH2) | 10 (≈ 8.89 µM)
CC[C@H](C)[C@H](NC(=O)[C@H](C)NC(=O)[C@H](CC(C)C)NC(=O)[C@H](CCCNC(=N)N)NC(=O)[C@H](CC(C)C)NC(=O)[C@H](C)N)C(=O)N[C@@H](CCCNC(=N)N)C(=O)N[C@@H](CCCCN)C(=O)N[C@@H](CCCNC(=N)N)C(N)=O [present peptide (1), Ala Leu Arg Leu Ala Ile Arg Lys Arg] (H-ALRLAIRKR-NH2) | 4 (≈ 3.65 µM)
